According to patent US20080139534A1, “Bisbenzamidines and bisbenzamidoximes for the treatment of human African trypanosomiasis” (XAVIER UNIVERSITY OF LOUISIANA, priority 2006, published 2008):
Read-outs that look alike come from different tables or passages of the source.

Legend:
[1] = tested on: T. b. rhodesiense KETRI 243; assay: In vitro trypanocidal activity, bloodforms in HMI-18 medium, Coulter counts; type: cell-based, Trypanosoma brucei rhodesiense; conditions: 48 h exposure
Experimental: (§1) The compounds were tested against trypanosome isolates grown as blood forms in HMI-18 medium containing 20% horse serum in 24 well microplates at 37° C. in 5% CO2. Wells were inoculated with 1×10^5 trypanosomes. […] One-half the volume was replaced daily. Cell counts were made daily with a Coulter Counter, Model Z1 (Beckman Coulter, Miami, Fla., USA). Cells were diluted with Isoton I buffer (Beckman Coulter) and the aperture was standardized at 5.14 μm. Background checks were performed daily on 1:10 dilutions of medium. Counts, normalization, and coincident counts were accounted for by the standardized Coulter analysis program. Occasionally, hemocytometer counts were performed as a check on the validity of the Coulter program. IC50 values were determined after 48 h from semi-log plots and the values are the result of duplicate determinations. Initially a broad concentration curve was used and then a close concentration curve from which IC50 values were determined. Assays were done in duplicate and each point was the average of the two. Control cells grew to 5×10^6/ml.
(§2) Coulter counts were made daily and IC50 values determined after 48 hours exposure.

poly(dA-dT) = assay: Thermal denaturation study, DNA binding affinity (ΔTm); conditions: 1:5 compound to base pair ratio;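 also: shift in the midpoint temperature of the thermal melting curve of poly(dA-dT), each value the mean of two or more independent determinations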
Experimental: (§3) The binding affinity was measured by determining the change in the midpoint (Tm) of the thermal denaturation curves of calf thymus DNA as well as poly(dA-dT) at a 1:5 compound to base pair ratio.

[2] = tested on: T. b. brucei Lab 110 EATRO; assay: In vitro trypanocidal activity, bloodforms in HMI-18 medium, Coulter counts; type: cell-based, Trypanosoma brucei brucei; conditions: read-out: Lab 100 EATRO IC50
Experimental: as §1, §2

calf thymus DNA = assay: Thermal denaturation study, DNA binding affinity (ΔTm); conditions: 1:5 compound to base pair ratio;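 also: shift in midpoint melting temperature of calf thymus DNA thermal denaturation curves caused by compound binding, values averaged over at least two determinations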
Experimental: as §3

[3] = tested on: T. b. rhodesiense KETRI 2002; assay: In vivo efficacy in infected mice, clinical isolate; parameters: species or system Trypanosoma brucei rhodesiense
Experimental: (§4) Female Swiss-Webster mice (weight, 20 g) were infected (intraperitoneally) with 2.5×10^5 trypanosomes from rat blood, and the infection was allowed to develop for 24 h before drug treatment was begun. Groups of three mice each were injected (intraperitoneally) with each drug concentration. All of the experiments included a group of untreated controls. […] Animals were monitored weekly for parasites in tail vein blood smears. Mice were considered cured if they survived more than 30 days after the death of the last control with no parasites in tail vein blood smears. MSD (mean survival in days) was also recorded for each group. It is the average time of survival of the animals in the group, exclusive of cured animals.
(§5) Mice were infected on day 1 with 2.5×10^5 trypanosomes and the infections allowed to progress 24 h. prior to dosing. Animals were dosed 1×/day i.p for 3 days. Cured animals survived >30 days beyond the death of untreated, infected controls. MSD=mean survival in days exclusive of cured animals. Dose as mg/kg/day.

[4] = tested on: T. b. brucei Lab 110 EATRO; assay: In vivo efficacy in infected mice; parameters: species or system Trypanosoma brucei brucei; conditions: mice
Experimental: Female Swiss-Webster mice (weight, 20 g) were infected (intraperitoneally) with 2.5×10^5 trypanosomes from rat blood, and the infection was allowed to develop for 24 h before drug treatment was begun. Groups of three mice each were injected (intraperitoneally) with each drug concentration. All of the experiments included a group of untreated controls. […] Parasitemia of animals dying of infection averaged 0.5-1.0×10^9/mL of blood. These infections are very predictable and daily counts were not done because of the labor involved. […] Animals were monitored weekly for parasites in tail vein blood smears. Mice were considered cured if they survived more than 30 days after the death of the last control with no parasites in tail vein blood smears. MSD (mean survival in days) was also recorded for each group. It is the average time of survival of the animals in the group, exclusive of cured animals.
Mice were infected with 250,000 parasites and dosing commenced 24 h. post infection. Mice were separated into groups of three and given single i.p doses for 3 days unless otherwise noted. Infected untreated controls were used for each experiment. Mice were considered cured if surviving more than 30 days beyond death of controls without parasites in tail vein blood smears. MSD, mean survival in days, exclusive of cured animals.

[5] = tested on: T. b. rhodesiense KETRI 1992; assay: In vivo efficacy in infected mice, clinical isolate; parameters: species or system Trypanosoma brucei rhodesiense
Experimental: as §4, §5

[6] = KETRI 1992, 1 mg/kg/day i.p. for 3 days
[7] = KETRI 1992, 5 mg/kg/day i.p. for 3 days
[8] = KETRI 1992, 10 mg/kg/day i.p. for 3 days

| Compound | IC50 [1] [nM] | DNA Binding Δ Tm Poly (dA-dT) (poly(dA-dT)) [°C] | IC50 ([2]; 48 h exposure, bloodforms) [nM] | DNA Binding Δ Tm Calf thymus (calf thymus DNA) [°C] | also measured |
| --- | --- | --- | --- | --- | --- |
| CN1CCN(C)C1c1ccc(N2CCN(c3ccc(C4N(C)CCN4C)cc3)CC2)cc1 [compound 0108] | 2320 | 1.8 | 6800 | 2.4 | – |
| CCOC(=O)c1ccc(N2CCN(c3ccc(C(=O)OCC)cc3)CC2)cc1 [compound 0118] | 350 | 0.0 | 340 | 0.6 | – |
| N/C(=N\OC(=O)c1ccccc1)c1ccc(NC(=O)CCCC(=O)Nc2ccc(/C(N)=N/OC(=O)c3ccccc3)cc2)cc1 [TH746, N,N′-Bis[4-(N-Phenylcarbonyloxyamidino)phenyl]pentanediamide] | – | – | – | – | melting point: 253 to 255 °C |
| N=C(N)c1ccc(NC(=O)CCCCCCC(=O)Nc2ccc(C(=N)N)cc2)cc1 [compound 0705] | 1.45 | – | 2.8 | – | MSD ([3]; KETRI 2002, 1 mg/kg/day i.p. for 3 days): >30 days; MSD ([3]; KETRI 2002, 5 mg/kg/day i.p. for 3 days): >30 days; MSD ([3]; KETRI 2002, 10 mg/kg/day i.p. for 3 days): >30 days; MSD ([3]; KETRI 2002, 25 mg/kg/day i.p. for 3 days): >30 days; MSD ([4]; 1 mg/kg/day i.p. for 3 days): 10 days; MSD ([4]; 5 mg/kg/day i.p. for 3 days): >30 days; MSD ([4]; 10 mg/kg/day i.p. for 3 days): >30 days; MSD ([4]; 25 mg/kg/day i.p. for 3 days): >30 days; #Cured/Total [5, 6]: 0/3; MSD [5, 6]: 15.3 days; #Cured/Total [5, 7]: 0/3; MSD [5, 7]: 22.6 days; #Cured/Total [5, 8]: 0/3; MSD [5, 8]: 29.6 days |
| NNC(=O)c1ccc(N2CCN(c3ccc(C(=O)NN)cc3)CC2)cc1 [compound 0117, 4,4′-(1,4-Piperazinediyl)bisbenzenecarboxhydrazide] | – | 0.0 | – | 0.1 | melting point: > 300 °C; IC50 ([2]; Trypanosoma brucei, 48 h): 240 nM |
| C=CCCc1nc(-c2ccc(NC(=O)CCCC(=O)Nc3ccc(-c4noc(CCC=C)n4)cc3)cc2)no1 [TH745, N,N′-Bis[4-(5-3,4-Butene-1,2,4-oxadiazol-3yl)phenyl]pentanediamide] | – | – | – | – | melting point: 168 to 170 °C |
| CCCCCCCNC(=N)c1ccc(N2CCN(c3ccc(C(=N)NCCCCCCC)cc3)CC2)cc1.Cl.Cl [compound 0133] | 57 | 8.5 | 100 | 8.7 | – |
| C(=NNc1ccccc1)c1ccc(N2CCN(c3ccc(C=NNc4ccccc4)cc3)CC2)cc1 [compound 0116] | 1870 | 0.0 | 1740 | −0.2 | – |
| CCCCCc1nc(-c2ccc(NC(=O)CCCC(=O)Nc3ccc(-c4noc(CCCCC)n4)cc3)cc2)no1 [TH743, N,N′-Bis[4-(5-Pentyl-1,2,4-oxadiazol-3yl)phenyl]pentanediamide] | – | – | – | – | melting point: 171 to 173 °C |
| c1ccc(N2CCN(c3ccccc3)C2c2ccc(N3CCN(c4ccc(C5N(c6ccccc6)CCN5c5ccccc5)cc4)CC3)cc2)cc1 [compound 0109] | 335 | 0.0 | 120 | −1.2 | – |
| CC(C)CCNC(=N)c1ccc(N2CCN(c3ccc(C(=N)NCCC(C)C)cc3)CC2)cc1.Cl.Cl [compound 0135] | 61 | 21.8 | 72 | 15.3 | – |
| C(=C1CCCN(c2ccc(C3=NCCN3)cc2)C1)c1ccc(C2=NCCN2)cc1.Cl.Cl (mixture of isomers) [3SF] | 84 | 15.0 | 71 | 12.0 | – |
| Cl.Cl.N=C(NC1CC1)c1ccc(N2CCCN(c3ccc(C(=N)NC4CC4)cc3)CC2)cc1 [73C] | 810 | 23.6 | 870 | 15.3 | – |
| CCCCCCCCCCCCNC(=N)c1ccc(N2CCN(c3ccc(C(=N)NCCCCCCCCCCCC)cc3)CC2)cc1.Cl.Cl [compound 0136] | 125 | 0.0 | 660 | 0.6 | – |
